Test: Solid-state stability of the amorphous form
Assay type: physicochemical

CC(C)c1nc(CN(C)C(=O)N[C@H](C(=O)N[C@@H](Cc2ccccc2)C[C@H](O)[C@H](Cc2ccccc2)NC(=O)OCc2cncs2)C(C)C)cs1 [(5S,8S,10S,11S)-10-Hydroxy-2-methyl-5-(1-methylethyl)-1-[2-(1-methylethyl)-4-thiazolyl]-3,6-dioxo-8,11-bis(phenylmethyl)-2,4,7,12-tetraazatridecan-13-oic acid 5-thiazolylmethyl ester]
stability of the amorphous form: unstable
time until the amorphous material changed into molten state: ≤ 30 min
